System: human BCL11A erythroid enhancer
Experiment: Tiled pooled CRISPR-Cas9 screen for in situ functional mapping of the human BCL11A erythroid enhancer (HbF-high/HbF-low sort, sgRNA deep sequencing)
Type: cell-based
Conditions: for Enrichment Score: HbF enrichment, human library NGG and NGG RC sgRNAs filtered for enrichment score >0.259; for Dropout Score: human library sgRNAs that produced HbF enrichment over 0.259
From the text: Every 20-mer sequence upstream of an NGG or NAG PAM sequence on the sense or anti-sense strand was identified for both the human and mouse orthologous +55, +58, and +62 DNase hypersensitive site (DHS) as well as BCL11A/BCL11a exon 2. Relative to the human hg 19 reference genome, a reference was used with the following substitutions to approximate a common low-HbF associated haplotype: rs1427407-G, rs1896293-T, rs6706648-T, rs6738440-G, rs7606173-C. Each of the sgRNA oligos were synthesized as previously described (37,41,64) and cloned using a Gibson Assembly master mix (New England Biolabs) into lentiGuide-Puro (Addgene plasmid ID 52963) BsmBI digested, PCR purified, and dephosphorylated. Gibson Assembly products were transformed to electrocompetent E. cloni cells (Lucigen). Sufficient colonies were isolated to ensure 90X library coverage for both human and mouse libraries. Plasmid libraries were deep sequenced (described below) to confirm representation.
Tiled Pooled CRISPR-Cas9 Screen for In Situ Functional Mapping the Human BCL11A Erythroid Enhancer.
HUDEP clone 2 (HUDEP-2) was utilized as previously described by from Nakamura and colleagues (49). HUDEP-2 cells were expanded in StemSpan SFEM (Stem Cell Technologies) supplemented with 10^−6 M dexamethasone (Sigma), 100 ng/mL human stem cell factor (SCF) (R&D), 3 IU/mL erythropoietin (Amgen), 1% L-glutamine (Life Technologies), and 2% penicillin/streptomycin (Life Technologies). 1 μg/mL doxycycline (Sigma) was included in the culture to induce expression of the human papilloma virus type 16 E6/E7 genes (49). HUDEP-2 cells were differentiated in Iscove's Modified Dulbecco's Medium (IMDM) supplemented with 330 μg/mL halo-transferrin (Sigma), 10 μg/mL recombinant human insulin (Sigma), 2 IU/mL heparin (Sigma), 5% human solvent detergent pooled plasma AB (Rhode Island Blood Center), 3 IU/mL erythropoietin (Amgen), 100 ng/mL human stem cell factor (SCF) (R&D), 1 μg/mL doxycycline (Sigma), 1% L-glutamine (Life Technologies), and 2% penicillin/streptomycin (Life Technologies).
HUDEP-2 cells with stable Cas9 expression were transduced at low multiplicity with the human sgRNA library lentivirus pool while in expansion medium. […] Cell numbers were maintained throughout the experiment at levels adequate to exceed 1000× representation of the library. 10 μg/mL blasticidin (Sigma) and 1 μg/mL puromycin (Sigma) were added 24 hours after transduction to select for lentiviral library integrants in cells with Cas9. Cells were cultured in expansion media for one week followed by differentiation media for an additional week.
Intracellular staining was performed by fixing cells with 0.05% glutaraldehyde (grade II) (Sigma) for 10 minutes at room temperature. Cells were centrifuged for 5 minutes at 350 g and then resuspended in 0.1% Triton-X100 (Life Technologies) for 5 minutes at room temperature for permeabilization. Triton X-100 was diluted with phosphate buffered saline (PBS) and then centrifuged at 350 g for 15 minutes. Cells were stained with anti-human antibodies for HbF (clone HbF-1 with FITC or APC conjugation; Life Technologies) and B-hemoglobin antibody (clone 37-8 with PerCP-Cy5 or PE conjugation; Santa Cruz) for 20 minutes in the dark. Cells were washed to remove unbound antibody prior to FACS analysis. 0.2 μg HbF and 2 μg of HbA CB-hemoglobin) antibodies were used per 5 million cells. Control cells exposed to a nontargeting sgRNA sample and BCL11A exon 2 were used as negative and positive controls respectively to establish flow cytometry conditions. Populations of cells with the top and bottom 10% of expression of HbF were sorted by FACS.
After sorting the HbF-high and HbF-low pools, library preparation and deep sequencing was performed as previously described (37). Briefly, genomic DNA was extracted using the Qiagen Blood and Tissue kit. […]

Row | Substance | Enrichment Score | Dropout Score
1 | BCL_00227_H_D62 (guide ATCCCAGCACTTTGGGAGGCNGG; listed as DNA, chemistry not given here) | 0.79 | −8.099
2 | BCL_00228_H_D62 (guide TCCCAGCACTTTGGGAGGCCNGG; listed as DNA, chemistry not given here) | 0.761 | −5.658
3 | BCL_00229_H_D62 (guide CCCAGCACTTTGGGAGGCCGNGG; listed as DNA, chemistry not given here) | 0.6113 | −8.717
4 | BCL_00233_H_D62 (guide CAGGAGGATCACCTGAGGTCNGG; listed as DNA, chemistry not given here) | 0.6113 | −9.202
5 | BCL_00238_H_D62 (guide TGCCTGTAATCTCAGCTACTNGG; listed as DNA, chemistry not given here) | 0.6113 | −8.923
6 | BCL_00239_H_D62 (guide GCCTGTAATCTCAGCTACTCNGG; listed as DNA, chemistry not given here) | 1.916 | −6.031
7 | BCL_00240_H_D62 (guide TGTAATCTCAGCTACTCGGGNGG; listed as DNA, chemistry not given here) | 0.79 | −8.691
8 | BCL_00241_H_D62 (guide CTCAGCTACTCGGGAGGCTGNGG; listed as DNA, chemistry not given here) | 0.6113 | −9.052
9 | BCL_00245_H_D62 (guide GGAGATCGCTTGAACCTGGGNGG; listed as DNA, chemistry not given here) | 0.4762 | −5.067
10 | BCL_00248_H_exon2 (guide ACAGATGATGAACCAGACCANGG; listed as DNA, chemistry not given here) | 1.609 | −2.532
11 | BCL_00249_H_exon2 (guide TGAACCAGACCACGGCCCGTNGG; listed as DNA, chemistry not given here) | 1.175 | −0.8221
12 | BCL_00250_H_exon2 (guide GAACCAGACCACGGCCCGTTNGG; listed as DNA, chemistry not given here) | 1.581 | −0.6847
13 | BCL_00251_H_exon2 (guide GGCCCGTTGGGAGCTCCAGANGG; listed as DNA, chemistry not given here) | 1.911 | −1.236
14 | BCL_00252_H_exon2 (guide GCCCGTTGGGAGCTCCAGAANGG; listed as DNA, chemistry not given here) | 0.5453 | 0.09212
15 | BCL_00253_H_exon2 (guide CCCGTTGGGAGCTCCAGAAGNGG; listed as DNA, chemistry not given here) | 1.205 | −1.968
16 | BCL_00254_H_exon2 (guide GATCATGACCTCCTCACCTGNGG; listed as DNA, chemistry not given here) | 2.198 | −2.256
17 | BCL_00255_H_exon2 (guide ATCATGACCTCCTCACCTGTNGG; listed as DNA, chemistry not given here) | 1.703 | −2.497
18 | BCL_00256_H_exon2 (guide GTGCCAGATGAACTTCCCATNGG; listed as DNA, chemistry not given here) | 1.89 | −1.764
19 | BCL_00257_H_exon2 (guide TGCCAGATGAACTTCCCATTNGG; listed as DNA, chemistry not given here) | 1.945 | −1.9609

Row | Substance | Enrichment Score | Dropout Score
20 | BCL_00258_H_exon2 (guide GCCAGATGAACTTCCCATTGNGG; listed as DNA, chemistry not given here) | 1.593 | −1.899
21 | BCL_00259_H_exon2 (guide CCAGATGAACTTCCCATTGGNGG; listed as DNA, chemistry not given here) | 3.266 | −3.321
22 | BCL_00261_H_exon2 (guide CACAAACGGAAACAATGCAANGG; listed as DNA, chemistry not given here) | 3.329 | −2.543
23 | BCL_00262_H_exon2 (guide CCTCTGCTTAGAAAAAGCTGNGG; listed as DNA, chemistry not given here) | 1.001 | −1.352
24 | BCL_00263_H_exon2 (guide GAAAAAAGCATCCAATCCCGNGG; listed as DNA, chemistry not given here) | 0.6213 | −2.115
25 | BCL_00264_H_exon2 (guide AAAAGCATCCAATCCCGTGGNGG; listed as DNA, chemistry not given here) | 0.5578 | −1.376
26 | BCL_00265_H_exon2 (guide GCATCCAATCCCGTGGAGGTNGG; listed as DNA, chemistry not given here) | 1.291 | −0.8895
27 | BCL_00266_H_exon2 (guide TCCCGTGGAGGTTGGCATCCNGG; listed as DNA, chemistry not given here) | 0.5889 | −0.1802
28 | BCL_00267_H_exon2 (guide TGGCATCCAGGTCACGCCAGNGG; listed as DNA, chemistry not given here) | 2.049 | −2.006
29 | BCL_01427_H_D55 (guide GGCTAAATAATGAATGTCCCNGGRC; listed as DNA, chemistry not given here) | 0.367 | −0.2716
30 | BCL_01428_H_D55 (guide GAATGTCCCAGGCCAATTCTNGGRC; listed as DNA, chemistry not given here) | 0.4299 | −0.5435
31 | BCL_01438_H_D55 (guide TACCAGGATGATGCAATGCTNGGRC; listed as DNA, chemistry not given here) | 0.9129 | −0.4122
32 | BCL_01443_H_D55 (guide GGCACACCCTGTGATCTTGTNGGRC; listed as DNA, chemistry not given here) | 0.4181 | 0.2579
33 | BCL_01448_H_D55 (guide TGTGCTTGGTCGGCACTGATNGGRC; listed as DNA, chemistry not given here) | 1.348 | −0.4953
34 | BCL_01449_H_D55 (guide GTGCTTGGTCGGCACTGATANGGRC; listed as DNA, chemistry not given here) | 1.134 | −0.6101
35 | BCL_01450_H_D55 (guide TGCTTGGTCGGCACTGATAGNGGRC; listed as DNA, chemistry not given here) | 1.578 | −0.3195
36 | BCL_01454_H_D55 (guide GGGTCGCGGTAGGGAGTTGTNGGRC; listed as DNA, chemistry not given here) | 0.3579 | −0.5577
37 | BCL_01461_H_D55 (guide GCCCTGCTGGTTATCACTGTNGGRC; listed as DNA, chemistry not given here) | 0.5924 | −0.5115
38 | BCL_01483_H_D55 (guide GTCATCCTCGGCCAATGAAGNGGRC; listed as DNA, chemistry not given here) | 0.4318 | −0.4056

Reference: US12497610B2, “Functional genomics using CRISPR-CAS systems for saturating mutagenesis of non-coding elements, compositions, methods, libraries and applications thereof” (THE BROAD INSTITUTE, INC., priority 2015, dated 2025)
